Measured values published in patent US20020137929A1, “1 - (3-heterocyclylphenyl) isothiourea, -isourea, -guanidine and -amidine herbicidal agents” (Intellectual Property Department, BASF Aktiengesellschaft, priority 1998, published 2002).

How the values were obtained:
[1] = test system: GLXMAW (Soybean, Williams); experiment: Postemergence herbicidal evaluation; format: in vivo, Glycine max, (L.) Merr. cv Williams; conditions: postemergence
Outline: (§1)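 Visual 0–9 rating versus control (stand, vigor, malformation, size, chlorosis, overall appearance), taken four to five weeks post-spray. Two-week-old seedlings received roughly 0.0156–0.500 kg/ha active in acetone/water (50/50) with 0.5% TWEEN 20 via nozzle at 40 psi.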

SETVI (Foxtail, Green) = experiment: Preemergence herbicidal evaluation; format: in vivo, Setaria viridis; conditions: rated 4-5 weeks after treatment, rating scale 0-9
Outline: (§2)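 Visual 0-9 rating vs control (stand, vigor, malformation, size, chlorosis, overall appearance), scored 4-5 wk after spraying. Seeded soil cups were treated preemergence with compound in aqueous acetone, ~0.0156-0.500 kg/ha equivalent.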

AMBEL (Ragweed, Common) [2] = experiment: Postemergence herbicidal evaluation; format: in vivo, Ambrosia artemisifolia; conditions: postemergence
Outline: as §1

GALAP (Galium) = experiment: Preemergence herbicidal evaluation; format: in vivo, Galium aparine; conditions: rated 4-5 weeks after treatment, rating scale 0-9
Outline: as §2

[3] = test system: GLXMAW (Soybean, Williams); experiment: Preemergence herbicidal evaluation; format: in vivo, Glycine max, (L.) Merr. cv Williams; conditions: rated 4-5 weeks after treatment, rating scale 0-9
Description: (§3) Results of herbicide evaluation are expressed on a rating scale (0-9). The scale is based upon a visual observation of plant stand, vigor, malformation, size, chlorosis and overall plant appearance as compared with a control.
(§4) The preemergence herbicidal activity of the test compounds of the present invention is exemplified by the following tests in which the seeds of a variety of monocotyledonous and dicotyledonous plants are separately mixed with potting soil and planted on top of approximately one inch of soil in separate pint cups. After planting, the cups are sprayed with the selected aqueous acetone solution containing test compound in sufficient quantity to provide the equivalent of about 0.0156 to 0.500 kg per hectare of test compound per cup. The treated cups are then placed on greenhouse benches, watered and cared for in accordance with conventional greenhouse procedures. From four to five weeks after treatment, the tests are terminated and each cup is examined and rated according to the rating system provided in Example 37.
(§5) The compounds evaluated are reported by compound number given in Example 37.

[4] = test system: IPOHE (Morningglory, Ivyleaf); experiment: Postemergence herbicidal evaluation; format: in vivo, Ipomoea hederacea; conditions: postemergence
Outline: as §1

ZEAMX (Corn, Field) = experiment: Postemergence herbicidal evaluation; format: in vivo, Zea mays; conditions: postemergence
Outline: as §1

ABUTH (Velvetleaf) = experiment: Preemergence herbicidal evaluation; format: in vivo, Abutilon theophrasti; conditions: rated 4-5 weeks after treatment, rating scale 0-9
Outline: as §2

ECHCG (Barnyardgrass) = experiment: Preemergence herbicidal evaluation; format: in vivo, Echinochloa crus-galli; conditions: rated 4-5 weeks after treatment, rating scale 0-9
Outline: as §2

AMBEL (Ragweed, Common) [5] = experiment: Preemergence herbicidal evaluation; format: in vivo, Ambrosia artemisifolia; conditions: rated 4-5 weeks after treatment, rating scale 0-9
Description: as §3, §4, §5

[6] = test system: SAGPY (Arrowhead (Pygmaea)); experiment: Preemergence weed control under flooded paddy conditions; format: in vivo, Sagittaria pygmaea; conditions: rated 3-4 weeks after treatment
Outline: (§6)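 Ratings on a 0-9 visual scale cover stand, vigor, malformation, size, chlorosis and overall appearance relative to a control, taken three to four weeks post-treatment. Application was into flood water over freshly sown silt loam at roughly 0.0313 to 0.500 kg/ha.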

CASOB (Sicklepod) = experiment: Preemergence herbicidal evaluation; format: in vivo, Cassia obtusifolia; conditions: rated 4-5 weeks after treatment, rating scale 0-9
Outline: as §2

CYPSE (Flatsedge) = experiment: Preemergence weed control under flooded paddy conditions; format: in vivo, Cyperus serotinus; conditions: rated 3-4 weeks after treatment
Outline: as §6

Cn1c(C(F)(F)F)cc(=O)n(-c2cc(N=C3SCC(=O)N3Cc3ccc(F)cc3)c(Cl)cc2F)c1=O [Compound 151, 3-{4-Chloro-2-fluoro-5-{[3-(p-fluorobenzyl)-4-oxo-2-thiazolidinylidene]amino}phenyl}-1-methyl-6-(trifluoromethyl)-2,4(1H,3H)-pyrimidinedione]
4.0: Herbicidal rating GLXMAW ([1]; rate 0.0156 kg/ha) | Preemergence herbicidal rating GALAP (GALAP (Galium); rate 0.0313 kg/ha) | Preemergence herbicidal rating GALAP (GALAP (Galium); rate 0.0625 kg/ha) | Preemergence herbicidal rating GLXMAW ([3]; rate 0.0625 kg/ha) | Herbicidal rating ZEAMX (ZEAMX (Corn, Field); rate 0.0156 kg/ha)
4.5: Herbicidal rating GLXMAW ([1]; rate 0.0313 kg/ha) | Herbicidal rating ZEAMX (ZEAMX (Corn, Field); rate 0.0313 kg/ha)
7.0: Herbicidal rating AMBEL (AMBEL (Ragweed, Common) [2]; rate 0.0156 kg/ha) | Herbicidal rating AMBEL (AMBEL (Ragweed, Common) [2]; rate 0.0313 kg/ha) | Preemergence herbicidal rating GLXMAW ([3]; rate 0.1250 kg/ha) | Preemergence herbicidal rating GLXMAW ([3]; rate 0.2500 kg/ha) | Preemergence herbicidal rating ECHCG (ECHCG (Barnyardgrass); rate 0.0625 kg/ha) | Preemergence herbicidal rating AMBEL (AMBEL (Ragweed, Common) [5]; rate 0.0313 kg/ha) | herbicidal effect rating, CYPSE (CYPSE (Flatsedge); 0.0625 kg/ha) | herbicidal effect rating, CYPSE (CYPSE (Flatsedge); 0.2500 kg/ha)
8.0: herbicidal effect rating, SAGPY ([6]; 0.1250 kg/ha)
1.0: Preemergence herbicidal rating AMBEL (AMBEL (Ragweed, Common) [5]; rate 0.0156 kg/ha)
0.0: herbicidal effect rating, SAGPY ([6]; 0.0313 kg/ha) | Preemergence herbicidal rating CASOB (CASOB (Sicklepod); rate 0.0156 kg/ha)
2.0: Preemergence herbicidal rating GALAP (GALAP (Galium); rate 0.0156 kg/ha) | Preemergence herbicidal rating GLXMAW ([3]; rate 0.0156 kg/ha) | Preemergence herbicidal rating ECHCG (ECHCG (Barnyardgrass); rate 0.0156 kg/ha) | herbicidal effect rating, SAGPY ([6]; 0.0625 kg/ha) | Preemergence herbicidal rating CASOB (CASOB (Sicklepod); rate 0.0313 kg/ha) | Preemergence herbicidal rating CASOB (CASOB (Sicklepod); rate 0.0625 kg/ha)
9.0: Preemergence herbicidal rating SETVI (SETVI (Foxtail, Green); rate 0.0156 kg/ha) | Preemergence herbicidal rating SETVI (SETVI (Foxtail, Green); rate 0.0313 kg/ha) | Preemergence herbicidal rating SETVI (SETVI (Foxtail, Green); rate 0.0625 kg/ha) | Preemergence herbicidal rating SETVI (SETVI (Foxtail, Green); rate 0.1250 kg/ha) | Preemergence herbicidal rating SETVI (SETVI (Foxtail, Green); rate 0.2500 kg/ha) | Herbicidal rating AMBEL (AMBEL (Ragweed, Common) [2]; rate 0.0625 kg/ha) | Preemergence herbicidal rating GALAP (GALAP (Galium); rate 0.1250 kg/ha) | Preemergence herbicidal rating GALAP (GALAP (Galium); rate 0.2500 kg/ha) | Herbicidal rating IPOHE ([4]; rate 0.0156 kg/ha) | Herbicidal rating IPOHE ([4]; rate 0.0313 kg/ha) | Herbicidal rating IPOHE ([4]; rate 0.0625 kg/ha) | Preemergence herbicidal rating ABUTH (ABUTH (Velvetleaf); rate 0.0156 kg/ha) | Preemergence herbicidal rating ABUTH (ABUTH (Velvetleaf); rate 0.0313 kg/ha) | Preemergence herbicidal rating ABUTH (ABUTH (Velvetleaf); rate 0.0625 kg/ha) | Preemergence herbicidal rating ABUTH (ABUTH (Velvetleaf); rate 0.1250 kg/ha) | Preemergence herbicidal rating ABUTH (ABUTH (Velvetleaf); rate 0.2500 kg/ha) | Preemergence herbicidal rating ECHCG (ECHCG (Barnyardgrass); rate 0.0313 kg/ha) | Preemergence herbicidal rating ECHCG (ECHCG (Barnyardgrass); rate 0.1250 kg/ha) | Preemergence herbicidal rating ECHCG (ECHCG (Barnyardgrass); rate 0.2500 kg/ha) | Preemergence herbicidal rating AMBEL (AMBEL (Ragweed, Common) [5]; rate 0.0625 kg/ha) | Preemergence herbicidal rating AMBEL (AMBEL (Ragweed, Common) [5]; rate 0.1250 kg/ha) | Preemergence herbicidal rating AMBEL (AMBEL (Ragweed, Common) [5]; rate 0.2500 kg/ha) | Preemergence herbicidal rating CASOB (CASOB (Sicklepod); rate 0.1250 kg/ha) | Preemergence herbicidal rating CASOB (CASOB (Sicklepod); rate 0.2500 kg/ha)
5.5: Herbicidal rating GLXMAW ([1]; rate 0.0625 kg/ha)
6.0: herbicidal effect rating, SAGPY ([6]; 0.2500 kg/ha)
5.0: Preemergence herbicidal rating GLXMAW ([3]; rate 0.0313 kg/ha) | Herbicidal rating ZEAMX (ZEAMX (Corn, Field); rate 0.0625 kg/ha)
